In US20050209157A1, “Short bioactive peptides and methods for their use” (priority 2001, published 2005):
Where two headings read alike, the source gives them in different places. No end group written: not given here.

Experiments:
[1] = in vitro; type: cell-based, human; details: human, human red blood cells
[2] = test system: MCF7 line of breast cancer cells; details: for MCF7 LD50: agent alone; for Active agent LD50 on MCF7 cells: Total conc.: peptide plus tamoxifen concentration at LD50; for Active agent LD50 on MCF7 cells: Peptide conc.: peptide with tamoxifen, peptide concentration at LD50; for Active agent LD50 on MCF7 cells: Tamox. conc.: tamoxifen concentration at LD50 (peptide with tamoxifen; tamoxifen alone in its own line)
[3] = Leukocyte (WBC) inhibition, toxicity LD50; type: cell-based, human; details: male, human, human leukocytes (buffy coat cells, mostly PBMCs); Table 41, lower part
Description: In vitro viability of human leukocyte cells in the presence of different peptides at different concentrations was determined by an Alamar Blue protocol. Alamar Blue (Promega, Madison, Wis.) is an indicator dye, formulated to measure quantitatively the proliferation and cytotoxicity of the cells. The dye consists of an oxidation-reduction (redox) indicator that yields a calorimetric change and a fluorescent signal in response to cellular metabolic activity.
Assay protocol: Blood from a human was drawn and centrifuged at 1500 rpm for 15 minutes at room temperature. The buffy coat cells at the plasma-red blood cell interface were aspirated. Buffy coat cells (mainly lymphocyte cells) were then transferred into 15 ml centrifuge tubes containing 5 ml of RPMI-1640 medium+10% Fetal Bovine Serum (Gibco, Grand Island, N.Y.). Additional medium was added to the tubes to bring the volume up to 10 ml. The buffy coat suspension was then carefully layered on 5 ml of Histopaque (Sigma Chemical Co., St. Louis, Mo.) and centrifuged at 1500 rpm for 30 minutes at room temperature. The interface which is mostly PBMCs (peripheral mononuclear cells) was aspirated and transferred to a 15 ml conical centrifuge tube and, resuspended in 2 ml cold RPMI-1640 and brought up to 15 ml with cold RPMI-1640 medium. Cells were centrifuged at 1500 rpm for 10 minutes. The supernatant was then aspirated and discarded. The cell pellet was re-suspended in 1 ml of cold RPMI 1640 and brought up to 15 ml with RPMI medium. This step was repeated twice, except that in the last step, the cells were resuspended with 1 ml of cold RPMI-1640 medium and cell counts were performed with a hemocytometer according to the Sigma cell culture catalogue.
Pokewood mitogen was used as a control along with positive and negative controls. Negative control cells were killed with 70% methanol. Positive (+) control cells were incubated in RPMI medium (untreated). […] of AlamarBlue was added to the cells, and readings were taken after 24 hours, 48 hours, 72 hours, and 96 hours using a fluorimeter (excitation 544/transmission 590 nm).
In choosing a peptide for possible treatment of a given indication it is important to match the therapeutic activity and specificity of the peptide with its possible toxic properties.
The protocols for WBC and WI38 stimulation have been discussed above. The RBC protocol follows Table 24.

[4] = in vitro; details: human, WI38 normal lung fibroblast cells
[5] = test system: MCF7; test: Anti-cancer assay, MTT, LD50; type: cell-based; details: for MCF7 LD50: Table 41, lower part; for LD50 MCF7: MCF7 breast adenocarcinoma line, MTT, 24 hours with peptide
Description: (§1) Numbers are LD50 values (μg/mL).

[6] = test system: yeast (Saccharomyces cerevisiae); test: Antimicrobial assay I, yeast assay in RPMI 1640; type: cell-based; details: RPMI 1640 media
[7] = test system: P. aeruginosa H774; type: cell-based, Pseudomonas aeruginosa; details: P. aeruginosa H744; nalidixic acid + peptide at ¼ MIC; 0.5 or less = synergy
Outline: (§2)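 Efflux-mutant strains were tested with two-fold serial dilutions of chloramphenicol or nalidixic acid, alone and with peptide held at ¼ of its own MIC.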

[8] = test system: P. aeruginosa H374; type: cell-based, Pseudomonas aeruginosa; details: for MIC Cm-comb.: MIC of chloramphenicol with peptide at ¼ MIC; for MIC Nal-comb.: MIC of nalidixic acid with peptide at ¼ MIC; for FIC Index: 0.5 or less = synergy
Outline: as §2

[9] = test system: P. aeruginosa; type: cell-based, Pseudomonas aeruginosa; details: P. aeruginosa H744; MIC of nalidixic acid with peptide at ¼ MIC
Outline: as §2

[10] = Solubility of peptides in sheep serum; type: physicochemical; details: sheep serum, […], 70% serum
[11] = test system: Pseudomonas aeruginosa; test: Serum inactivation of peptides, serum MIC; type: cell-based; details: for MIC 30 min treatment: sheep serum 37° C. 30 minutes; for MIC 2 hr treatment: sheep serum 37° C. 2 hours
Description: Subsequently, the serum MICs against Pseudomonas aeruginosa were conducted to determine extent of serum inactivation of the peptides.

[12] = test system: Pseudomonas aeruginosa ATCC 9027; test: Antimicrobial assay I, MIC by OD measurement; type: cell-based; details: 37° C. for 24 hours, absorbance 620 nm
[13] = test system: Staphylococcus aureus ATCC 6538; test: Antimicrobial assay I, MIC by OD measurement; type: cell-based; details: 37° C. for 24 hours, absorbance 620 nm
[14] = test system: HeLaS3; test: Anti-cancer assay, MTT, LD50; type: cell-based; details: 24 hours with peptide, cervical carcinoma
Description: as §1

[15] = test system: BMKC; test: Anti-cancer assay, MTT, LD50; type: cell-based; details: BMKC cloned melanoma line, 24 hours with peptide
Description: as §1

[16] = test system: PC3; test: Anti-cancer assay, MTT, LD50; type: cell-based; details: 24 hours with peptide, prostate adenocarcinoma
Description: as §1

[17] = test system: SW480; test: Anti-cancer assay, MTT, LD50; type: cell-based; details: SW480 colon adenocarcinoma line, 24 hours with peptide
Description: as §1

[18] = test system: H1299; test: Anti-cancer assay, MTT, LD50; type: cell-based; details: 24 hours with peptide, lung large cell carcinoma
Description: as §1

[19] = test system: WI38; details: MTT, 24 hours with peptide; normal fibroblast line
[20] = pH 7, Table 41, lower part, read-out: RBC LD50
[21] = WI38 LD50, Table 41, lower part
[22] = chloramphenicol + peptide at ¼ MIC
[23] = nalidixic acid + peptide at ¼ MIC, FIC=0.25+MIC comb/MIC alone
[24] = pH 7, hemolytic assay, concentration at 50% hemolysis, 1 hour at 37° C., read-out: LD50
[25] = LD50 WI38, WI38 normal lung fibroblast line, MTT, 24 hours with peptide

Substance | HC50 at 1 h [1, 20] | MCF7 LD50 [2] | Active agent LD50 on MCF7 cells: Total conc. [2] | Active agent LD50 on MCF7 cells: Peptide conc. [2] | Active agent LD50 on MCF7 cells: Tamox. conc. [2] | CC50 [3] | CC50 at 24 h [4, 21] | MCF7 LD50 [5] | FIC Index [7] | MIC Cm-comb. [8] | MIC Nal-comb. [8] | FIC Index [8, 22] | FIC Index [8, 23] | MIC Nal-comb. [9] | Solubility [10] | HC50 at 1 h [1, 24] | MIC 30 min treatment ([11]; first of two columns) | MIC 30 min treatment ([11]; second of two columns) | MIC 2 hr treatment ([11]; first of two columns) | MIC 2 hr treatment ([11]; second of two columns) | also measured
FALALKALKKAL-NH2 [106 (144)] | 600 µg/mL | 310 µg/mL | 42.7 µg/mL | 35 µg/mL | 7.7 µg/mL | 320 µg/mL | 740 µg/mL | 310 µg/mL | – | – | – | – | – | – | – | – | – | – | – | – | –
FAKKLAKKLKKLAKKLAK-NH2 [164 (69)] | 900 µg/mL | 79 µg/mL | 7.1 µg/mL | 2.5 µg/mL | 4.6 µg/mL | 140 µg/mL | 60 µg/mL | 79 µg/mL | – | – | – | – | – | – | – | – | – | – | – | – | –
KWKLFKKKTKLFKKFAKKLAKKL-OH [P81] | – | – | – | – | – | – | – | – | 1.25 | 16 µg/mL | 5000 µg/mL | 1.25 | 1.25 | 624 µg/mL | Precipitated | 8 µg/mL | 20 µg/mL | 20 µg/mL | 20 µg/mL | 20 µg/mL | yeast (MIC or MFC) [6]: > (> indicates greater than 200 μg/mL); paerug9027 (MIC) [12]: > (> indicates greater than 200 μg/mL); staph6538 (MIC) [13]: 10 µg/mL; CC50 at 24 h [4, 25]: 8 µg/mL; HeLaS3 LD50 [14]: 19 µg/mL; LD50 BMKC [15]: 12 µg/mL; PC3 LD50 [16]: 170 µg/mL; LD50 SW480 [17]: 13 µg/mL; H1299 LD50 [18]: 22 µg/mL; LD50 MCF7 [5]: 63 µg/mL; WI38 LD50 [19]: 8 µg/mL
FALALKALKKLLKKLKKLAKKAL-NH2 [P24] | – | – | – | – | – | – | – | – | 1.25 | 16 µg/mL | 5000 µg/mL | 1.25 | 1.25 | 624 µg/mL | Precipitated | 10 µg/mL | 40 µg/mL | 20 µg/mL | 20 µg/mL | 20 µg/mL | CC50 at 24 h [4, 25]: 55 µg/mL; HeLaS3 LD50 [14]: 145 µg/mL; LD50 BMKC [15]: 85 µg/mL; PC3 LD50 [16]: 38 µg/mL; LD50 SW480 [17]: 38 µg/mL; H1299 LD50 [18]: 72 µg/mL; LD50 MCF7 [5]: 26 µg/mL; WI38 LD50 [19]: 55 µg/mL
KLAKKLAKLAKLAKAL-OH [121 (160)] | > 1000 µg/mL | 240 µg/mL | 14.7 µg/mL | 11 µg/mL | 3.7 µg/mL | 900 µg/mL | 700 µg/mL | 240 µg/mL | – | – | – | – | – | – | – | – | – | – | – | – | –
